Source: PubChem BioAssay (NCI)
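A five-concentration, 48-hour dose response in 96-well plates underlies each endpoint, interpolated linearly between surrounding concentrations. TGI: concentration producing complete growth inhibition.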 Where a SMILES comes first, the peptide text is derived from it. [ ]: non-standard residue; d: D form. The star is where a group is joined. Tyr(3-Br) = N[C@@H](Cc1ccc(O)c(Br)c1)C(=O)O; Boc = CC(C)(C)OC(=O)*

What was measured:
Assay in all cases: inhibition of tumour cell growth, NCI panel, 48 h
786-0 renal = test system: 786-0 renal
COLO 205 colon = test system: COLO 205 colon
DU-145 prostate = test system: DU-145 prostate
HCC-2998 colon = test system: HCC-2998 colon
HOP-92 NSCLC = test system: HOP-92 NSCLC
HS 578T breast = test system: HS 578T breast
K-562 leukemia = test system: K-562 leukemia
MALME-3M melanoma = test system: MALME-3M melanoma
MCF7 breast = test system: MCF7 breast
MOLT-4 leukemia = test system: MOLT-4 leukemia
OVCAR-4 ovarian = test system: OVCAR-4 ovarian
OVCAR-8 ovarian = test system: OVCAR-8 ovarian
SF-295 CNS = test system: SF-295 CNS
SK-MEL-2 melanoma = test system: SK-MEL-2 melanoma
SR leukemia = test system: SR leukemia
T-47D breast = test system: T-47D breast
TK-10 renal = test system: TK-10 renal
UACC-257 melanoma = test system: UACC-257 melanoma
U251 CNS = test system: U251 CNS
MDA-MB-231 breast = test system: MDA-MB-231 breast

Row | Compound | TGI (786-0 renal) [µM] | TGI (COLO 205 colon) [µM] | TGI (DU-145 prostate) [µM] | TGI (HCC-2998 colon) [µM] | TGI (HOP-92 NSCLC) [µM] | TGI (HS 578T breast) [µM] | TGI (K-562 leukemia) [µM] | TGI (MALME-3M melanoma) [µM] | TGI (MCF7 breast) [µM] | TGI (MOLT-4 leukemia) [µM] | TGI (OVCAR-4 ovarian) [µM] | TGI (OVCAR-8 ovarian) [µM] | TGI (SF-295 CNS) [µM] | TGI (SK-MEL-2 melanoma) [µM] | TGI (SR leukemia) [µM] | TGI (T-47D breast) [µM] | TGI (TK-10 renal) [µM] | TGI (UACC-257 melanoma) [µM] | TGI (U251 CNS) [µM] | TGI (MDA-MB-231 breast) [µM]
1 | COC(=O)[C@H](Cc1ccc(O)c(Br)c1)NC(=O)[C@H](Cc1ccc(O)cc1)NC(=O)OC(C)(C)C (Boc-Tyr-[Tyr(3-Br)]-OMe) | > 100 | > 100 | > 100 | > 100 | 93 | > 100 | > 100 | 57.2 | > 100 | > 100 | > 100 | 37.5 | > 100 | > 100 | > 100 | 44.4 | > 100 | > 100 | – | –
2 | Cc1oc(N)c(S(=O)(=O)c2ccc(Cl)cc2)c1C | > 100 | – | > 100 | > 100 | > 100 | > 100 | > 100 | > 100 | > 100 | > 100 | > 100 | > 100 | > 100 | > 100 | > 100 | > 100 | > 100 | > 100 | > 100 | –
3 | CCCCSC1=N/C(=C\c2ccc(N(C)C)cc2)C(NN)=N1 | > 100 | – | > 100 | > 100 | > 100 | > 100 | > 100 | > 100 | > 100 | > 100 | > 100 | > 100 | > 100 | > 100 | – | > 100 | > 100 | > 100 | > 100 | > 100
4 | CC1=CCC2C3(C)CCC2(C(C)C)C1C3 (stereo not drawn) (tested in a mixture with another compound) | 47.3 | 65 | 68 | 49.5 | 58.3 | 38.2 | 99 | > 100 | 34.3 | 75.3 | > 100 | 33.2 | 40.3 | 32.2 | – | > 100 | 78.7 | 99.7 | 50.8 | 55.6
5 | O=C(N/N=C/c1ccc([N+](=O)[O-])o1)c1ccc(C(=O)N/N=C/c2ccc([N+](=O)[O-])o2)cc1 | > 100 | 94.7 | > 100 | – | > 100 | > 100 | > 100 | 48.7 | 48.9 | > 100 | > 100 | 77.9 | > 100 | > 100 | > 100 | > 100 | – | – | > 100 | > 100
6 | CC1(C)CC(=O)C2=C(C1)NC1=C(C(=O)CC(C)(C)C1)C2c1ccc([N+](=O)[O-])cc1 | > 100 | > 100 | > 100 | > 100 | > 100 | > 100 | > 100 | – | > 100 | > 100 | > 100 | > 100 | > 100 | > 100 | – | > 100 | > 100 | > 100 | > 100 | > 100
7 | CCOC(=O)c1nc2ccccc2nc1Nc1ccc(OC)c(OC)c1 | > 100 | > 100 | > 100 | > 100 | > 100 | > 100 | > 100 | > 100 | > 100 | > 100 | > 100 | – | > 100 | > 100 | > 100 | > 100 | – | – | > 100 | > 100
8 | Cc1ccc2c(sc(-c3ccc4c(c3)sc(-c3ccc5c(c3)sc(-c3ccc(N(C)C)cc3)[n+]5C)[n+]4C)[n+]2C)c1S(=O)(=O)O (tested in a mixture with another compound) | > 100 | > 100 | > 100 | > 100 | > 100 | > 100 | > 100 | – | > 100 | > 100 | > 100 | > 100 | > 100 | > 100 | – | > 100 | > 100 | > 100 | > 100 | > 100
9 | C=C(C)CC1(O)C(=O)C(OCC)=C1OCC (stereo not drawn) | > 100 | > 100 | > 100 | – | > 100 | > 100 | – | > 100 | > 100 | > 100 | > 100 | > 100 | > 100 | > 100 | – | > 100 | > 100 | > 100 | > 100 | > 100
10 | O=C(Nc1nn(C(=O)c2ccc(Cl)cc2)c(=O)s1)c1ccc(Cl)cc1 | > 100 | > 100 | > 100 | > 100 | > 100 | > 100 | > 100 | > 100 | > 100 | > 100 | > 100 | > 100 | > 100 | – | > 100 | > 100 | > 100 | > 100 | > 100 | > 100
11 | CCN(CC)C(=S)SS(=O)(=O)c1ccc(Cl)cc1 | > 100 | > 100 | 82 | > 100 | 50.4 | > 100 | 63.3 | 27.5 | – | – | > 100 | 34 | > 100 | > 100 | 21.1 | > 100 | > 100 | 58.8 | 30.4 | > 100
12 | COC(C(=O)C(O)C(C)O)C1CC2C=C3C=C(OC4CC(OC5CC(O)C(OC)C(C)O5)C(OC(C)=O)C(C)O4)C(C)C(=O)C3=C(O)C2=C(O)C1OC1CC(OC2CC(OC3CC(C)(O)C(OC(=O)C(C)C)C(C)O3)C(O)C(C)O2)C(O)C(C)O1 (stereo not drawn) | < 0.01 | < 0.01 | < 0.01 | < 0.01 | – | < 0.01 | < 0.01 | < 0.01 | > 100 | > 100 | > 100 | < 0.01 | – | < 0.01 | < 0.01 | < 0.01 | > 100 | < 0.01 | – | < 0.01
13 | O=C(C[n+]1ccccc1)N/N=C(\Cc1nc2ccc([N+](=O)[O-])cc2[nH]c1=O)C(=O)Nc1cc(Cl)c(Cl)cc1Cl | > 100 | > 100 | > 100 | > 100 | > 100 | > 100 | > 100 | > 100 | > 100 | > 100 | > 100 | > 100 | > 100 | > 100 | > 100 | > 100 | – | > 100 | > 100 | > 100
14 | CCOC(=O)C(C(=O)c1ccccc1C(=O)OC)=P(c1ccccc1)(c1ccccc1)c1ccccc1 | > 10 | > 10 | > 10 | > 10 | > 10 | > 10 | > 10 | > 10 | > 10 | > 10 | > 10 | > 10 | > 10 | > 10 | – | > 10 | > 10 | > 10 | > 10 | > 10
15 | COc1ccc(/C=C2\CCC(C)/C(=C\c3ccc(OC)c(OC)c3)C2=O)cc1OC (stereo not drawn) | 19.4 | 54.2 | 21 | – | – | 88.3 | 67.3 | 22 | 22.3 | 11.7 | – | 39.8 | 23 | 25.3 | – | 28.2 | 7.41 | 21.5 | > 100 | 60.8
16 | CCOC(=O)c1sc(N/N=C2\NC(=O)/C(=C/c3ccc([N+](=O)[O-])cc3)S2)nc1C | 33.7 | 48.5 | 47.4 | 85.3 | 44.6 | > 100 | – | – | 72.5 | 31.1 | > 100 | 65.2 | > 100 | 81.3 | 29.4 | 45.4 | > 100 | 42.1 | > 100 | 49.2
17 | O=C(CCCNc1nc(-c2ccccc2)cs1)c1cccs1 | > 100 | > 100 | – | > 100 | – | > 100 | > 100 | > 100 | > 100 | > 100 | > 100 | > 100 | > 100 | > 100 | > 100 | > 100 | > 100 | > 100 | > 100 | > 100
18 | O=C(/C=C1\C[C@H]2C=Nc3ccccc3C(=O)N2C1)NCCCCNC(=O)/C=C1\C[C@H]2C=Nc3ccccc3C(=O)N2C1 | 3.32 | 14.8 | 29.7 | 32.9 | 20.4 | > 88.7 | > 33.5 | 18 | 35.1 | – | 26.1 | 9.76 | 35.4 | 29.2 | – | 22.3 | 23.8 | 27.1 | 11.3 | 0.986
19 | CC1(C)CC23CC(C)(C)c4cccc(c42)OCc2ccc4ccc5ccc(nc5c4n2)COc2cccc1c23 | > 50 | > 50 | > 50 | > 50 | > 50 | > 50 | > 50 | – | > 50 | > 50 | > 50 | > 50 | > 50 | > 50 | > 50 | > 50 | > 50 | > 50 | > 50 | > 50
20 | C[C@]12Cc3cnn(-c4ccc(F)cc4)c3NC1CC[C@@H]1C2CC[C@@]2(C)C1CC[C@@H]2O (stereo partly drawn) | 11.9 | 10.3 | 27.8 | 18.3 | 24.7 | 26.5 | 24 | 23.7 | 36.7 | 16.3 | 27.5 | 27.9 | 4.38 | – | 12.8 | 17 | 34 | 19.2 | 21.7 | 46.9
21 | CCCCc1ccc(Nc2nc(=S)c3[nH]cnc3[nH]2)cc1 | > 100 | 31.2 | > 100 | 66.4 | > 100 | 49.3 | > 100 | 37 | – | 22.2 | 76.4 | – | 78.7 | 52.1 | – | 49.3 | 46.5 | 55.2 | > 100 | 83.3
22 | O=C1N2CCc3c([nH]c4ccccc34)C23CC2CCCCC12S3 (stereo not drawn) | > 100 | > 100 | > 100 | – | > 100 | > 100 | > 100 | > 100 | > 100 | > 100 | > 100 | > 100 | > 100 | – | > 100 | > 100 | > 100 | 73.1 | > 100 | > 100
23 | COP(=O)(Cc1ccccc1)Cc1ccccc1 | > 100 | > 100 | > 100 | > 100 | – | > 100 | > 100 | > 100 | > 100 | > 100 | > 100 | > 100 | > 100 | > 100 | > 100 | > 100 | > 100 | > 100 | > 100 | > 100
24 | O=C1O[C@H]2[C@H](O)[C@@H](OC(=O)c3cc(O)c(O)c4c3[C@@H]3C1=CC(=O)C(O)(O)C3(O)O4)[C@H](OC(=O)c1cc(O)c(O)c(O)c1)O[C@@H]2CO (stereo partly drawn) | > 100 | > 100 | > 100 | > 100 | > 100 | > 100 | > 100 | > 100 | > 100 | > 100 | > 100 | > 100 | > 100 | > 100 | > 100 | > 100 | – | > 100 | > 100 | > 100
